Legend:
[1] = system: Orobanche aegyptiaca seeds; experiment: Orobanche Germination Assay (biological activity after stress treatments); assay type: in vivo; conditions: with vs without HPC
Description: The implementation of the strigolactone analogs necessitates a degree of material stability, to ensure their activity on the plant under various growth conditions. Accordingly, the stability of the strigolactone analog GR24 was tested under different environmental conditions. GR24 in acetone stock solution of 5.6 mM was diluted in double distilled water (DDW) or HPC pre-made gel to a concentration of 0.56 μM in eppendorf tubes and was subjected to the following treatments:
GR24 solutions of 0.56 μM, diluted either in DDW or in HPC pre-made gel in eppendorf tubes were incubated in a dry block heater at temperatures of 4° C., 20° C., 40° C., 60° C. digitally set for periods of 3 h, 1 d, 2 d, 4 d, 5 d and 7 d under ambient light.
GR24 solutions of 0.56 μM, diluted either in DDW or in HPC pre-made gel, each in quartz tubes (15 replicates for each treatment) were exposed to UV radiation of λ=312 nm under UV lamp of 600 or 857 μE intensity for periods of 15 min, 30 min or 18 h.
Biological activity was determined by Orobanche Germination Assay: Approximately 30 to 50 seeds of Orobanche aegyptiaca were spread on a glass fiber filter paper disk (9-mm diameter) and put into sterile petri dishes (9-cm diameter) lined with Whatman filter paper wetted with 3 mL of demineralized water. Petri dishes were sealed with parafilm and incubated at 27° C. for preconditioning. After one week of preconditioning period, the glass fiber filter paper disks with Orobanche seeds were removed from the petri dish and dried for 20 min to remove surplus moisture. The disks were transferred to another petri dish within a filter paper ring (outer diameter of 9 cm; inner diameter of 8 cm) wetted with 0.9 mL of water, which maintained a moist environment during the germination bioassay. Forty microliters of the GR24 test solutions were added to the disks. Untreated GR24 at a 0.56 μM concentration was used as a positive control, water or HPC pre-made gel as negative controls. Germination percent was calculated using the counter cell analysis of the IMAGEJ (http://www.//rsbweb.nih.gov/ij/) software. Germinated seeds were distinguished from non-germinated seeds according to the seedling radicles, which are a few millimeters long and visible under a stereomicroscope (Leica MZFLIII, Leica Microsystems, GmbH).
For each of the GR24 treatments fifteen replicates with 30-40 seeds were tested per treatment with 40 μl of 0.56 μM GR24 test solutions pre-treated as described above. The experiment was repeated three times (n=450 seeds).
Next, GR24 was stabilized with Hydroxypropyl Cellulose (HPC), which is a […] medium. Granular HPC [Sigma-Aldrich Israel Ltd., CAS-No. 9004-64-2] […]

olive seedling = experiment: Application to olive seedling stem under greenhouse conditions (parafilm, flexible or rigid tubes); conditions: rigid tubes
Description: EGO10 either with PVAc, or HPC+glycerin were applied on olive seedling stem by the use of parafilm cover as the apparatus, under greenhouse conditions (FIG. 15). Greenhouse conditions include controlled room temperature of 25° C. In each experiment, 10 plants were used for each treatment. The substances were applied on the stem by a spatula and covered with parafilm.
In attempt to improve the performance of the apparatus, different substances and different cover were used. Four formulations were developed and tested. These formulations are based on polysaccharide-sorbent-humidifier substances while the main difference between them is the viscosity of the final product and the ability to retain and release of the active ingredient (EGO 10). […] The cover consisted of a flexible plastic tube that was cut (FIG. 16A), placed on the seedling stem (FIG. 16B) and wrapped with transparent plaster (FIG. 16C). The plastic tubes were filled with the experimental material (FIG. 16D). Moist cotton was placed on both sides of the tubes to minimize water evaporation (FIG. 16E and FIG. 16F). Bud outgrowth was measured for 30 days.
Rigid plastic tubes were tested in order to determine their efficiency as a delivery device for application of the hormone formulations to plants. At first, eppendorf tubes served as prototype. The tubes ware cut from top to bottom and placed on the stem of seedlings. Each tube was sealed with a small moist cotton at the bottom, filled with 1 ml of the examined material and finally covered with transparent plastic tape (FIGS. 17A-17E). The tubes were filled with (HPC+glycerin), or PVAc and EGO10 In each experiment, 10 plants were used for each treatment. Greenhouse conditions include controlled room temperature of 25° C.
EGO10 (10 μM) or acetone control together with HPC+glycerin or PVAc were applied on the stem of olive cuttings by the use of rigid plastic tubes as described in Example 10 above.
Bud outgrowth of olive cuttings was measured until day 30.

Almond = experiment: EGO10 granules and collar application to almond in commercial nursery; assay type: in vivo, Prunus dulcis
Description: Two replicates on experiments were performed in commercial nursery.

Hypericum plants = experiment: EGO10 collar and granules application to Hypericum plants; assay type: in vivo, Hypericum calycinum or Hypericum perforatum
Description: EGO10 (25 and 50 μM) with HPC+glycerin were applied in rigid tubes, as described above (Example 13) to Hypericum calycinum or Hypericum perforatum (Ivory Spices of Danziger, result of breeding for ornamental). Two replicates on experiments were done in the greenhouse. EGO10 was applied at the indicated concentrations as a collar. Also, EGO10 was applied in another, new way of application—as granules of slow release of 3×10^−8 M—that were applied in the soil, close to the root zone. […] An example to the results of the collar treatment is in FIG. 27.

Tomato (Ikram cultivar) = experiment: EGO10 collar combined with auxin spray on tomato; assay type: in vivo, Solanum lycopersicum
Description: The effect of EGO 10 combined with auxin was tested. […] Collar was applied 50 μM of EGO10 (FIG. 32) with a auxin daily spray (IAA) 5 ppm on the shoot tip. Also treatment with only the 50 μM collar of EGO10, an IAA treatment with no collar as a control for the auxin treatment and a control with no treatment were applied. Each treatment consisted of 10-12 plants, blocks of 4 plants were randomly distributed in the greenhouse.

CC1=C[C@H](O/C=C2\Cc3c(n(C)c4ccccc34)C2=O)OC1=O [EGO10]
Orobanche germination % with HPC at 60° C. ([1]; 60° C., 0 and 24 hours): increased biological activity | Orobanche germination % with HPC at different pH ([1]; basic and acidic pH (pH 4, pH 7, pH 10)): increased biological activity | plant growth (olive seedling; 10 μM with HPC+glycerin, greenhouse): without delaying plant growth | bud outgrowth (olive seedling; 10 μM with HPC+glycerin, greenhouse, 30 days, not significantly different from control): some inhibition of bud outgrowth | growth of treated olive buds (olive seedling; 50 μM with HPC+glycerin): grew properly | bud outgrowth (olive seedling; 50 μM with HPC+glycerin, until day 30, vs acetone+HPC+glycerin): significantly inhibits bud outgrowth | number of axillary branches (Almond; 3×10^−8 M as granules of controlled release): marked and significant reduction in the number of axillary branches | number of axillary branches (Almond; both granules and collar): reduced the inhibitory effect of the granules on side branches | no. of axillary branches (Hypericum plants; 50 μM as collar in Eppendorf tubes, not significantly different): marked reduction in the no. of axillary branches | no. of axillary branches (Hypericum plants; granules of slow release of 3×10^−8 M in the soil): did not result with substantial changes in the no. of axillary branches | bud outgrowth above the collar (Tomato (Ikram cultivar); 50 μM collar only): more moderate and not consistent respond | bud outgrowth above the collar (Tomato (Ikram cultivar); 50 μM collar with auxin (IAA) daily spray 5 ppm): clear inhibition of bud outgrowth

— patent US20180235213A1, “PLANT HORMONE APPLICATION” (The State of Israel Ministry of Agriculture & Rural …, priority 2015, published 2018)
